Assay results taken from PMC6934184, “Selective DNA-PKcs inhibition extends the therapeutic index of localized radiotherapy and chemotherapy” (The Journal of Clinical Investigation, 2019).

Target: T1, IRAK4 (Homo sapiens, UniProt Q9NWZ3)
T1 construct: purchased Thermo Fisher Scientific (Life Technologies) SelectScreen
Experiment: SelectScreen Z'LYTE
Type: biochemical
Summary of the method: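 NU5455 was profiled across the SelectScreen Broad panel of kinase activity and binding assays. Z'LYTE reactions such as CSF1R ran at apparent Km ATP, while the Adapta CAMK1 assay used ATP listed as 10. Values are given as percent.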

T1 sequence (Q9NWZ3 whole entry): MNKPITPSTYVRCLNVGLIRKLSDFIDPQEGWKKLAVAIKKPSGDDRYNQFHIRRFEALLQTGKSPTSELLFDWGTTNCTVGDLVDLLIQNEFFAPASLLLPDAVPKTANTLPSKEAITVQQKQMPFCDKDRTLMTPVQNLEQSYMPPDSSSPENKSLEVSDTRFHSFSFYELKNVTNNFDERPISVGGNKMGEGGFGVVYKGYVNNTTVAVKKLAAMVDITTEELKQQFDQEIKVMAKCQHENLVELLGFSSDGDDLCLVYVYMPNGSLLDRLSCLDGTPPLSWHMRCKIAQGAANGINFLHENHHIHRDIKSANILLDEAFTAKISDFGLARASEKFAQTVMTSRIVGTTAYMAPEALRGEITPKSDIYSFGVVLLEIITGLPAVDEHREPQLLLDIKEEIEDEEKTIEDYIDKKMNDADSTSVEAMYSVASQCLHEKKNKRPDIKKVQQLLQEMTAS

CN(C(=O)CN1CCOCC1)c1ccc2sc3c(-c4cccc5c(=O)cc(N6CC7CCC(C6)O7)oc45)cccc3c2c1 [NU5455]
inhibition at 1 µM: -20.5%
